Reference: ChEMBL document CHEMBL6109134, “Discovery of AMG 193, an MTA-Cooperative PRMT5 Inhibitor for the Treatment of MTAP-Deleted Cancers” (J Med Chem, 2025)
≈ marks a conversion by molar mass, not a printed value.

Legend:
[1] = Toxicity in female rat up to 25 mg/kg, po administered as single dose for 14 days; format: organism-based; settings: in vivo, 336 h, time 14 day
[2] = Unbound clearance in Beagle dog at 0.5 mg/kg, iv; format: ADME, organism-based, Canis lupus familiaris; settings: in vivo
[3] = biological target: Voltage-gated inwardly rectifying potassium channel KCNH2 (Homo sapiens, UniProt Q12809); experiment: Inhibition of human ERG by QPatch clamp method
[4] = biological target: Protein arginine N-methyltransferase 5 (Homo sapiens) (UniProt O14744); experiment: In vivo inhibition of PRMT5 in athymic nude mouse xenografted with MTAP-deleted human HCT-116 cells assessed as decrease in SDMA level in tumor at 3 mg/kg, po administered once daily for 4 days and measured 4 hrs post last dose by ELISA relative to control; format: functional, organism-based; settings: time 4.0 day
[5] = Protein binding in dog plasma assessed as unbound fraction by ultracentrifugation
[6] = tested on: HCT-116; experiment: Antitumor activity against MTAP-deleted human HCT-116 cells xenografted in female athymic nude mouse model assessed as tumor growth inhibition at 3 mg/kg, po administered once daily for 14 days relative to control; format: functional; settings: HCT-116, 336 h, time 14 day, read-out: TGI
[7] = Antitumor activity against MTAP-deleted human U-87 MG cells xenografted in female athymic nude mouse model assessed as tumor growth inhibition at 30 mg/kg, po administered once daily for 14 days and measured 24 hrs post last dose relative to control; format: functional, U-87MG ATCC; settings: 360 h, time 15 day, read-out: TGI
[8] = Unbound CSF-to-plasma concentration ratio in male Sprague-Dawley rat at 25 mg/kg, po administered as single dose; format: ADME, organism-based
[9] = biological target: Protein arginine N-methyltransferase 5 (Homo sapiens) (UniProt O14744); experiment: In vivo inhibition of PRMT5 in female athymic nude mouse xenografted with MTAP-deleted human U-87 MG cells assessed as decrease in SDMA level in tumor at 100 mg/kg, po administered once daily for 14 days and measured 2 to 8 hrs post last dose by ELISA relative to control; format: functional, organism-based; settings: time 338-344 hrs
[10] = Unbound clearance in CD-1 mouse at 1 mg/kg, iv; format: ADME, organism-based; settings: in vivo
[11] = Unbound CSF-to-plasma concentration ratio in female Sprague-Dawley rat at 75 mg/kg, po administered as single dose; format: ADME, organism-based
[12] = tested on: DOHH-2; experiment: Antiproliferative activity against human DOHH-2 cells assessed as effect on cell viability; format: functional, cell-based
[13] = Protein binding in human plasma assessed as unbound fraction by ultracentrifugation
[14] = Clearance in Sprague-Dawley rat at 0.5 mg/kg, iv; settings: in vivo
[15] = Efflux ratio in MDCK-II cells; settings: dog
[16] = tested on: BXPC-3; experiment: Antitumor activity against MTAP-deleted human BXPC-3 cells xenografted in athymic nude mouse model assessed as tumor growth inhibition at 100 mg/kg, po administered once daily for 26 days and measured 24 hrs post last dose relative to control; format: functional; settings: BXPC-3, 648 h, time 27 day, read-out: TGI
[17] = Metabolic stability in rat hepatocytes assessed as intrinsic clearance measured per 10^6 cells; format: ADME, cell-based, Hepatocyte; settings: read-out: CLH
[18] = Solubility of compound in SIF at pH 6.8
[19] = biological target: Protein arginine N-methyltransferase 5 (Homo sapiens) (UniProt O14744); experiment: Binding affinity to PRMT5 (unknown origin) assessed as occupancy in presence of MTA by SPR analysis relative to control
[20] = Metabolic stability in dog hepatocytes assessed as intrinsic clearance measured per 10^6 cells; format: ADME, cell-based, Canis lupus familiaris, Hepatocyte; settings: read-out: CLH
[21] = in vivo; settings: Sprague-Dawley, rat, po, 2 mg/kg, pH 2
[22] = Protein binding in rat plasma assessed as unbound fraction by ultracentrifugation
[23] = biological target: Protein arginine N-methyltransferase 5 (Homo sapiens) (UniProt O14744); experiment: In vivo inhibition of PRMT5 in athymic nude mouse xenografted with human HCT-116 cells harboring wildtype MTAP assessed as decrease in SDMA level in tumor at 10 mg/kg, po administered once daily for 4 days and measured 4 hrs post last dose by ELISA relative to control; format: functional, organism-based; settings: time 4.0 day
[24] = biological target: T1, Broad substrate specificity ATP-binding cassette transporter ABCG2 (Homo sapiens, UniProt Q9UNQ0); experiment: Effect on BCRP (unknown origin)-mediated transport up to 10 uM
T1 sequence (Q9UNQ0 whole entry): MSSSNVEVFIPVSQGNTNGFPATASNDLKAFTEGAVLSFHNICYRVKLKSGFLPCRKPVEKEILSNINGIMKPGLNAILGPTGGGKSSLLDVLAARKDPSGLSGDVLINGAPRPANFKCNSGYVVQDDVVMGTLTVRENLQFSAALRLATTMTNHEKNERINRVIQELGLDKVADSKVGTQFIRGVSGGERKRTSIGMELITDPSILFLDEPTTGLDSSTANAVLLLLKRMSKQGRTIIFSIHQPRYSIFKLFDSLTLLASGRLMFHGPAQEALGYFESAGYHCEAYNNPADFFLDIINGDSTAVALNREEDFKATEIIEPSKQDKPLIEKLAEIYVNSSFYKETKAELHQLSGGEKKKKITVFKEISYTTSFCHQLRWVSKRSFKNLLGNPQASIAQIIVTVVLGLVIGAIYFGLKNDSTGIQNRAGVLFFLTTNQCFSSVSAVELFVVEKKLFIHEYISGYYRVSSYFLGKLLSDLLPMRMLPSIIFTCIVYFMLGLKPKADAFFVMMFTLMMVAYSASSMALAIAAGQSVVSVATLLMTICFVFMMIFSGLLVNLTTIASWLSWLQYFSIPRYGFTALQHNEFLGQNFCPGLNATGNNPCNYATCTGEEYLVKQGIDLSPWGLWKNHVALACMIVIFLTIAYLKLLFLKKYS

[25] = Metabolic stability in mouse hepatocytes assessed as intrinsic clearance measured per 10^6 cells; format: ADME, cell-based, Hepatocyte; settings: read-out: CLH
[26] = biological target: PRMT5/MEP50 complex (Homo sapiens, UniProt O14744)
Description: Inhibition of PRMT5/MEP50 (unknown origin) preincubated with compound for 24 hrs in presence of SAM and MTA followed by Histone H4 (1-21)-Lys(Biotin) peptide addition and measured after 2 hrs by MTase-Glo reagent based assay

[27] = Unbound clearance in Sprague-Dawley rat at 0.5 mg/kg, iv; format: ADME, organism-based; settings: in vivo
[28] = biological target: Protein arginine N-methyltransferase 5 (Homo sapiens) (UniProt O14744); experiment: In vivo inhibition of PRMT5 in athymic nude mouse xenografted with human HCT-116 cells harboring wildtype MTAP assessed as decrease in SDMA level in tumor at 100 mg/kg, po administered once daily for 4 days and measured 4 hrs post last dose by ELISA relative to control; format: functional, organism-based; settings: time 4.0 day
[29] = biological target: Protein arginine N-methyltransferase 5 (Homo sapiens) (UniProt O14744); experiment: In vivo inhibition of PRMT5 in athymic nude mouse xenografted with human HCT-116 cells harboring wildtype MTAP assessed as decrease in SDMA level in tumor at 30 mg/kg, po administered once daily for 4 days and measured 4 hrs post last dose by ELISA relative to control; format: functional, organism-based; settings: time 4.0 day
[30] = Unbound CSF-to-plasma concentration ratio in female Sprague-Dawley rat at 25 mg/kg, po administered as single dose; format: ADME, organism-based
[31] = tested on: BXPC-3; experiment: Antitumor activity against MTAP-deleted human BXPC-3 cells xenografted in athymic nude mouse model assessed as tumor growth inhibition at 30 mg/kg, po administered once daily for 26 days and measured 24 hrs post last dose relative to control; format: functional; settings: BXPC-3, 648 h, time 27 day, read-out: TGI
[32] = biological target: Protein arginine N-methyltransferase 5 (Homo sapiens) (UniProt O14744); experiment: In vivo inhibition of PRMT5 in female athymic nude mouse xenografted with MTAP-deleted human U-87 MG cells assessed as decrease in SDMA level in tumor at 30 mg/kg, po administered once daily for 14 days and measured 2 to 8 hrs post last dose by ELISA relative to control; format: functional, organism-based; settings: time 338-344 hrs

Sequence of Protein arginine N-methyltransferase 5 (Homo sapiens) (O14744 whole entry): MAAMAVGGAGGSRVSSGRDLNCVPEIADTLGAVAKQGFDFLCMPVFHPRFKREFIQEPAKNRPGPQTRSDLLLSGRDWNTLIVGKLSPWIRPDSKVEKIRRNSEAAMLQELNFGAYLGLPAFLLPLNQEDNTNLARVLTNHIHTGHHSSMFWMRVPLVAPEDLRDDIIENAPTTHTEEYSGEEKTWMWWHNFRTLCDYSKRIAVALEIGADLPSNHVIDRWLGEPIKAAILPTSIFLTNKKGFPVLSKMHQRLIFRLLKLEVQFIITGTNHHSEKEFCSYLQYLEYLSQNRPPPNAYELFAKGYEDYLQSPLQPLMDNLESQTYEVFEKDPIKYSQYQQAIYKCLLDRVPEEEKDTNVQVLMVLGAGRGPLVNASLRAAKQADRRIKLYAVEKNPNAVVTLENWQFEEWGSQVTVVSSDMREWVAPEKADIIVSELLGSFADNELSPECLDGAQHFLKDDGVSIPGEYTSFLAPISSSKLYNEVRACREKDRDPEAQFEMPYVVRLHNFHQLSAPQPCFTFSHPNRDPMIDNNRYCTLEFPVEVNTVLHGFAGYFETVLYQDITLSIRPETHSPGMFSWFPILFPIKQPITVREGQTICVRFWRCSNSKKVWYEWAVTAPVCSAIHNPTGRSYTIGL
Sequence of Voltage-gated inwardly rectifying potassium channel KCNH2 (Q12809 whole entry): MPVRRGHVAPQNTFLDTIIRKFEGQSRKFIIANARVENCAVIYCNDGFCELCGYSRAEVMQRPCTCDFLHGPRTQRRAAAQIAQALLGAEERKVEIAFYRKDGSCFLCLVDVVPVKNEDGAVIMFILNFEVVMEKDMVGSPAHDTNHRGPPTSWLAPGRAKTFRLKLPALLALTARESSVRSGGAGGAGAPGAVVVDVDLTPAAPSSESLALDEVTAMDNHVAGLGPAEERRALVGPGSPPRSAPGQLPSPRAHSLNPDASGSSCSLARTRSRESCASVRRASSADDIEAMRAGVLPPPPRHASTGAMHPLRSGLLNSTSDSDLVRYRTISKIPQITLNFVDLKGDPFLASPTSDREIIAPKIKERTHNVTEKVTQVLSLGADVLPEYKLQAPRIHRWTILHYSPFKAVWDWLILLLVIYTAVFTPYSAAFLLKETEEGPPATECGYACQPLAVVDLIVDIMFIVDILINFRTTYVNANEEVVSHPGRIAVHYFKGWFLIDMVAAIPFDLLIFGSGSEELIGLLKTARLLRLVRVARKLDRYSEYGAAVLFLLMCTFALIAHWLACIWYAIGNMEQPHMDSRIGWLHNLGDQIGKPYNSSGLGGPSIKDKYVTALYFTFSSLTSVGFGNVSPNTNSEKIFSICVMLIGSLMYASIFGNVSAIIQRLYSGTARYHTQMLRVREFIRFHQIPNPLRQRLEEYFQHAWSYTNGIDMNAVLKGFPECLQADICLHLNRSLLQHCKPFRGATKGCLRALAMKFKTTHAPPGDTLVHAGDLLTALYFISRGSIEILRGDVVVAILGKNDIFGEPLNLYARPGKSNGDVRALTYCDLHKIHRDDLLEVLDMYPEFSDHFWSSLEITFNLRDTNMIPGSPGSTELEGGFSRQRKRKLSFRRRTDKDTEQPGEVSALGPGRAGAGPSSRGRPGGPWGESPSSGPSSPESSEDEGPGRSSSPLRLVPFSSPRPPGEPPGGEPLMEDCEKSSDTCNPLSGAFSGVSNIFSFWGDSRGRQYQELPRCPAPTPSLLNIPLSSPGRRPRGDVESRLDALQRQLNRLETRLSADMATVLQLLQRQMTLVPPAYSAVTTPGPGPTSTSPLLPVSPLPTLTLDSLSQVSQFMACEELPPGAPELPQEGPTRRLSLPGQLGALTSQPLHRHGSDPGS
Sequence of PRMT5/MEP50 complex (O14744 whole entry): as the sequence (O14744 whole entry) above
Sequence of PRMT5/MEP50 complex (Q9BQA1 whole entry, further chain): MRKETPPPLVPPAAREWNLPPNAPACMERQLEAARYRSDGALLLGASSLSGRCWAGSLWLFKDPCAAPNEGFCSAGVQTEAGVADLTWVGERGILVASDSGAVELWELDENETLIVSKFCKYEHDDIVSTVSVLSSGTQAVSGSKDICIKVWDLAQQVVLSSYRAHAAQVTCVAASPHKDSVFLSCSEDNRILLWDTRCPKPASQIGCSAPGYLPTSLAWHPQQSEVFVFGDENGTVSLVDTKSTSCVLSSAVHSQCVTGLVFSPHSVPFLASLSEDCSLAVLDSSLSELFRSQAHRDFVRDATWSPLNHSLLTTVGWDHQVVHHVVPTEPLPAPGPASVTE

CL free [2]: 50 mL/min/kg
inhibition [4]: 69%
fraction unbound [5]: 0.08
Kp uu [8]: 0.24
inhibition [9]: 83%
CL free [10]: 142 mL/min/kg
Kp uu [11]: 0.2
fraction unbound [13]: 0.11
clearance [14]: 28.3 mL/min/kg
efflux ratio [15]: 3
hepatocyte CLint [17]: 31 µL/min/1e6 cells
solubility [18]: 335 µM (≈ 149 µg/mL)
Occ [19]: 70%
hepatocyte CLint [20]: 5 µL/min/1e6 cells
bioavailability [21]: 60%
fraction unbound [22]: 0.1
inhibition [23]: 32%
Activity [24]: Not_active
hepatocyte CLint [25]: 13 µL/min/1e6 cells
Ki [26]: < 0.1 nM
CL free [27]: 283 mL/min/kg
inhibition [28]: 79%
inhibition [29]: 48%
Kp uu [30]: 0.2
inhibition [32]: 77%
SMILES: Nc1nc2cnc(C(=O)N3CCOC[C@@H]3c3ccc(C(F)(F)F)cc3)cc2c2c1COC2
Activity [1]: Non-toxic
IC50 [3]: > 30000 nM
inhibition in vivo at 3 mg/kg [6]: 54%
inhibition in vivo at 30 mg/kg [7]: 57%
IC50 [12]: 51 nM
inhibition in vivo at 100 mg/kg [16]: 96%
inhibition in vivo at 30 mg/kg [31]: 61%
